Numbers after ± are expanded uncertainties.
Test: molar heat capacity at constant pressure
Details: 101.33 kPa, Small (less than 1 g) adiabatic calorimetry

CCCCCCCCCCn1cc[n+](C)c1.O=S(=O)([N-]S(=O)(=O)C(F)(F)F)C(F)(F)F
molar heat capacity at constant pressure [J/K/mol]
Details	Crystal 2	Metastable crystal
4.82 K	3.08 ± 0.09	–
4.98 K	–	3.38 ± 0.1
5 K	3.41 ± 0.11	3.41 ± 0.11
5.15 K	3.69 ± 0.1	–
5.32 K	–	4.05 ± 0.11
5.49 K	4.38 ± 0.12	–
5.67 K	–	4.81 ± 0.13
5.85 K	5.15 ± 0.14	–
6.03 K	–	5.65 ± 0.15
6.28 K	6.16 ± 0.16	–
6.46 K	–	6.76 ± 0.17
6.8 K	7.44 ± 0.19	–
6.97 K	–	8.15 ± 0.21
7.32 K	8.83 ± 0.22	–
7.49 K	–	9.71 ± 0.24
7.85 K	10.34 ± 0.25	–
8.02 K	–	11.34 ± 0.28
8.39 K	11.95 ± 0.29	–
8.55 K	–	13.1 ± 0.32
8.92 K	13.66 ± 0.33	–
9.09 K	–	14.97 ± 0.36
9.47 K	15.45 ± 0.37	–
9.62 K	–	16.9 ± 0.4
10 K	17.29 ± 0.33	18.31 ± 0.36
10.01 K	17.32 ± 0.28	–
10.16 K	–	18.93 ± 0.31
10.63 K	19.54 ± 0.31	–
10.78 K	–	21.32 ± 0.34
11.31 K	22.05 ± 0.35	–
11.46 K	–	24.01 ± 0.37
12 K	24.68 ± 0.38	–
12.15 K	–	26.84 ± 0.41
12.7 K	27.41 ± 0.42	–
12.85 K	–	29.77 ± 0.45
13.4 K	30.22 ± 0.45	–
13.56 K	–	32.75 ± 0.49
14.1 K	33.14 ± 0.49	–
14.27 K	–	35.9 ± 0.53
14.81 K	36.15 ± 0.53	–
14.99 K	–	39.03 ± 0.57
15 K	36.94 ± 0.52	39.12 ± 0.55
15.63 K	39.64 ± 0.57	–
15.81 K	–	42.67 ± 0.61
16.56 K	43.69 ± 0.62	–
16.75 K	–	46.88 ± 0.66
17.51 K	47.81 ± 0.66	–
17.7 K	–	51.06 ± 0.71
18.46 K	51.81 ± 0.71	–
18.65 K	–	55.14 ± 0.75
19.4 K	55.79 ± 0.75	–
19.6 K	–	59.21 ± 0.79
20 K	58.37 ± 0.57	61 ± 0.59
20.36 K	59.87 ± 0.58	–
20.85 K	–	64.6 ± 0.61
21.61 K	65.16 ± 0.6	–
22.41 K	–	71.3 ± 0.64
23.17 K	71.8 ± 0.63	–
23.98 K	–	78 ± 0.67
24.75 K	78.35 ± 0.66	–
25 K	79.32 ± 0.66	82.14 ± 0.69
25.56 K	–	84.49 ± 0.69
26.31 K	84.64 ± 0.68	–
27.07 K	–	90.53 ± 0.71
27.89 K	90.84 ± 0.69	–
28.66 K	–	96.83 ± 0.72
29.55 K	97.23 ± 0.7	–
30 K	98.9 ± 0.59	102 ± 0.6
30.24 K	–	102.9 ± 0.6
31.4 K	104 ± 0.6	–
31.98 K	–	109.5 ± 0.6
33.31 K	110.8 ± 0.6	–
33.9 K	–	116.3 ± 0.7
35 K	116.6 ± 0.7	120.1 ± 0.7
35.22 K	117.3 ± 0.7	–
35.82 K	–	123 ± 0.7
37.13 K	123.7 ± 0.7	–
37.74 K	–	129.4 ± 0.7
39.05 K	129.9 ± 0.7	–
39.66 K	–	135.6 ± 0.8
40 K	132.9 ± 0.7	136.7 ± 0.8
41.06 K	136.2 ± 0.8	–
41.68 K	–	142 ± 0.8
43.16 K	142.8 ± 0.8	–
43.79 K	–	148.7 ± 0.8
45 K	–	152.5 ± 0.9
45.27 K	149.2 ± 0.8	–
45.9 K	–	155.3 ± 0.9
47.38 K	155.7 ± 0.9	–
48.02 K	–	161.8 ± 0.9
49.5 K	161.9 ± 0.9	–
50 K	163.2 ± 1	167.6 ± 1
50.15 K	–	168 ± 0.9
51.63 K	168 ± 0.9	–
52.27 K	–	174.1 ± 1
53.75 K	173.9 ± 1	–
54.4 K	–	180 ± 1
55.87 K	179.6 ± 1	–
56.52 K	–	185.7 ± 1
57.99 K	185.1 ± 1	–

From the NIST ThermoML archive (doi:10.1016/j.jct.2016.02.009)
